Tests used:
KRas G13D = molecular target: T1, KRas G13D (Homo sapiens, UniProt P01116, G13D); test: KRas binding assay (TR-FRET displacement);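 note: One-hour room temperature incubation before TR-FRET reading, IC50 from a four-parameter curve fit to percent-of-control data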
T1 construct: Biotinylated KRas (corresponding to amino acids 1-169, produced at Accelegan Inc.); biotin (biotinylated); purchased Accelegan Inc
Method: (§2) The ability of a compound to bind to KRas was measured using a TR-FRET displacement assay. […] After a 60-minute incubation at room temperature, the reaction was measured using a BMG LABTECH CLARIO star Plus via TR-FRET. […] The POC values were fit to a 4-parameter IC50 equation and the IC50 value reported.

KRas Q61H = molecular target: T2, KRas Q61H (Homo sapiens, UniProt P01116, Q61H); test: KRas binding assay (TR-FRET displacement);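 note: TR-FRET signal read after one hour at room temperature, IC50 derived by four-parameter fitting of percent-of-control values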
T2 construct: Biotinylated KRas (corresponding to amino acids 1-169, produced at Accelegan Inc.); biotin (biotinylated); purchased Accelegan Inc
Method: as §2

[1] = tested on: phospho-ERK in A549 (G12S) cells; test: Inhibition of KRas-mediated phosphorylation of ERK (in-cell western); format: cell-based; details: Homo sapiens, 3 hours compound, phospho-ERK normalized to GAPDH
How it was run: (§1)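 After a 3-hour incubation with diluted compound in 0.5% DMSO, cells are fixed, permeabilized and stained overnight at 4° C for phosphorylated ERK and GAPDH.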

[2] = tested on: phospho-ERK in AsPC-1 (G12D) cells; test: as above; format: cell-based; details: Homo sapiens, ASPC1, 3 h, 3 hours compound, phospho-ERK normalized to GAPDH
How it was run: as §1

[3] = tested on: phospho-ERK in HCT116 (G13D) cells; test: as above; format: cell-based; details: Homo sapiens, HCT-116, 3 hours compound, phospho-ERK normalized to GAPDH
How it was run: as §1

[4] = tested on: phospho-ERK in MKN1 (WTdep) cells; test: as above; format: cell-based; details: Homo sapiens, MKN-1, 3 hours compound, phospho-ERK normalized to GAPDH
How it was run: as §1

[5] = tested on: phospho-ERK in NCI-H358 (G12C) cells; test: as above; format: cell-based; details: Homo sapiens, 3 hours compound, phospho-ERK normalized to GAPDH
How it was run: as §1

[6] = tested on: phospho-ERK in NCI-H460 (Q61H) cells; test: as above; format: cell-based; details: Homo sapiens, NCI-H460, 3 h, 3 hours compound, phospho-ERK normalized to GAPDH
How it was run: as §1

[7] = tested on: phospho-ERK in NCI-H727 (G12V) cells; test: as above; format: cell-based; details: Homo sapiens, NCI-H727, 3 h, 3 hours compound, phospho-ERK normalized to GAPDH
How it was run: as §1

[8] = tested on: phospho-ERK in PSN-1 (G12R) cells; test: as above; format: cell-based; details: Homo sapiens, PSN1, 3 hours compound, phospho-ERK normalized to GAPDH
How it was run: as §1

KRas G12D = KRas G12D (Homo sapiens, UniProt P01116, G12D); test: biochemical;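 note: TR-FRET displacement binding assay on KRas, read after a one-hour incubation at room temperature, IC50 fitted from percent-of-control values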
Method: as §2

KRas G12V = KRas G12V (Homo sapiens, UniProt P01116, G12V); test: biochemical;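 note: KRas binding measured by TR-FRET displacement at room temperature, IC50 fitted from percent of control values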
Method: as §2

KRas G12R = KRas G12R (Homo sapiens, UniProt P01116, G12R); test: biochemical;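 note: TR-FRET displacement assay of compound binding to KRas, read after one hour at room temperature, potency from a four-parameter fit of percent-of-control values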
Method: as §2

KRas G12A = KRas G12A (Homo sapiens, UniProt P01116, G12A); test: biochemical;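 note: binding to KRas measured by TR-FRET displacement after one hour at room temperature, IC50 from a four-parameter fit of percent-of-control values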
Method: as §2

KRas G12S = KRas G12S (Homo sapiens, UniProt P01116, G12S); test: biochemical;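 note: TR-FRET displacement binding to KRas, read after one hour incubation at room temperature, IC50 from four-parameter fit of percent of control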
Method: as §2

KRas G12C = KRas G12C (Homo sapiens, UniProt P01116, G12C); test: biochemical;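 note: binding to KRas assessed by TR-FRET displacement after one hour incubation at room temperature, potency fitted from percent-of-control values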
Method: as §2

KRas WT = KRas WT (Homo sapiens, UniProt P01116); test: biochemical;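 note: binding to KRas read as TR-FRET displacement after a one-hour room-temperature incubation, IC50 derived from percent-of-control values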
Method: as §2

pERK in MKN1 cells = test: Inhibition of KRas phosphorylation of ERK (Cisbio HTRF pERK assay); details: Homo sapiens, MKN-1, 3 h, read-out: Inhibition (HTRF IC50) of KRas-mediated Phosphorylation of ERK, MKN1
Method: (§3) To harvest cells from flask using 0.05% Trypsin/EDTA solution. Add 10 mL of media to stop trypsinizing. Pipette the cells into a conical bottom 50 mL centrifuge tube and centrifuge 5 min×1000 rpm. • 2. Re-suspend the cell pellet in media, take a cell count, and then adjust the cell density using fresh media. • 3. Seed 6,000 cells into cell culture plate with 50 μL media. […] Incubate cell plate overnight in a 37° C., 5% CO2 incubator. • Compound titrations • 1. Use Tecan to complete the compound addition. Compounds start from 10 uM top, 3-fold dilution, and 10 doses. The final DMSO concentration is 0.8%. Dispensed 0.2 uM Trametinib as Min control. • 2. Incubate cell plate for 3 hrs in the incubator. • Detection with cisbio pERK HTRF kit • 1. […] At the end of the compound treatment, flick-off the media. • 3. Add 35 μL of lysis buffer per well using a Multidrop Combi. Then place on a plate agitator shaking at 300 rpm at 4° C. for 40 mins. • 4. Make up the HTRF antibody buffer. For each assay plate, mix 50 μL of d2-conjugate antibody with 950 μL of detection buffer. Similarly, mix 50 μL of Cryptate antibody with 950 μL of detection buffer. Then mix the two diluted antibodies together. • 5. Dispense 3.4 μL the antibody buffer to wells of an empty assay plate. Seal the plate and centrifuge plate 30 sec×1000 rpm. • 6. At the end of the 4° C. lysis, centrifuge the lysate plates 3 mins×1500 rpm. • 7. Use the Bravo to transfer 13.6 μL of lysate from cell culture plate to assay plate.
(§4) Then incubate assay plate for 2 hrs at room temperature. […] At the end of incubation, read plate on the Envision after centrifuging plate 30 sec× • 1000 rpm.

pERK in PSN1 cells = test: as above; details: Homo sapiens, PSN1, 3 h, read-out: Inhibition (HTRF IC50) of KRas-mediated Phosphorylation of ERK, PSN1
pERK in ASPC1 cells = test: as above; details: Homo sapiens, ASPC1, read-out: Inhibition (HTRF IC50) of KRas-mediated Phosphorylation of ERK, AsPC-1
pERK in H727 cells = test: as above; details: Homo sapiens, NCI-H727, read-out: Inhibition (HTRF IC50) of KRas-mediated Phosphorylation of ERK, H727
pERK in A549 cells = test: as above; details: Homo sapiens, A549, read-out: Inhibition (HTRF IC50) of KRas-mediated Phosphorylation of ERK, A549
pERK in H460 cells = test: as above; details: Homo sapiens, NCI-H460, read-out: Inhibition (HTRF IC50) of KRas-mediated Phosphorylation of ERK, H460
Method: as §3, §4

pERK in HCT116 cells = test: as above; details: Homo sapiens, HCT-116, read-out: Inhibition (HTRF IC50) of KRas-mediated Phosphorylation of ERK, HCT116

Chain of KRas G12V (P01116 1-169 isoform P01116-2 G12V): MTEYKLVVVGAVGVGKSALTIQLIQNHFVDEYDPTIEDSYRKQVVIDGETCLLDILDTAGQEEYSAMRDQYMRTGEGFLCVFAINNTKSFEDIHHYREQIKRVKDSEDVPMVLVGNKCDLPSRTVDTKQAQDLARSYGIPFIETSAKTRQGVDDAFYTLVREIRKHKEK
T2 sequence (P01116 1-169 isoform P01116-2 Q61H): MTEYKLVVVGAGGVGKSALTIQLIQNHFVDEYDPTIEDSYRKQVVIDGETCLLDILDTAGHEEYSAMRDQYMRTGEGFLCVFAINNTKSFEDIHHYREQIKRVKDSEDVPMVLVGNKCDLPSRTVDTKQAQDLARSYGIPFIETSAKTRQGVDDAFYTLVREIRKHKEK
T1 sequence (P01116 1-169 isoform P01116-2 G13D): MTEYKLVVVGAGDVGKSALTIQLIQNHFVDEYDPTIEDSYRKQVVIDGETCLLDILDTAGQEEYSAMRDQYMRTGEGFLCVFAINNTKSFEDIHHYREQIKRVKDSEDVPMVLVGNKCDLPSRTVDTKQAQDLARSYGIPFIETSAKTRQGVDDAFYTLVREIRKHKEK
Chain of KRas G12R (P01116 1-169 isoform P01116-2 G12R): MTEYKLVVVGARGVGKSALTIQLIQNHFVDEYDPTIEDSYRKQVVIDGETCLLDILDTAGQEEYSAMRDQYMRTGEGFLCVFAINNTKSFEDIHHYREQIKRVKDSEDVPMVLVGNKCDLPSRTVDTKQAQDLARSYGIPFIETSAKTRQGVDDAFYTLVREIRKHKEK
Chain of KRas G12D (P01116 1-169 isoform P01116-2 G12D): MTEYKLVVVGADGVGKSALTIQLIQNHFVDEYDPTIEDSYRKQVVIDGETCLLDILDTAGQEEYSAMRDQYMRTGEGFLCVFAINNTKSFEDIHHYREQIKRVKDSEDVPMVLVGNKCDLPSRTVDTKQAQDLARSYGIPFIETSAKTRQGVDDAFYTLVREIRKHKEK
Chain of KRas WT (P01116 1-169 isoform P01116-2): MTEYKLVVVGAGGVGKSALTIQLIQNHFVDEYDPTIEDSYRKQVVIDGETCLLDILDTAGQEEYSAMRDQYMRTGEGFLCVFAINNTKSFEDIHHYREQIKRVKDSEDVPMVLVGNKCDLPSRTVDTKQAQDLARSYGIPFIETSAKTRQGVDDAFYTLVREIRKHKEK
Chain of KRas G12C (P01116 1-169 isoform P01116-2 G12C): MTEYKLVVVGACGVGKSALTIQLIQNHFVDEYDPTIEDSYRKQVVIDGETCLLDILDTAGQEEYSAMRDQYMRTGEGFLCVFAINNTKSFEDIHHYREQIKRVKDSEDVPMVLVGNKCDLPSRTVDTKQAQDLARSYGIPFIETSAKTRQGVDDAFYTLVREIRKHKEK
Chain of KRas G12A (P01116 1-169 isoform P01116-2 G12A): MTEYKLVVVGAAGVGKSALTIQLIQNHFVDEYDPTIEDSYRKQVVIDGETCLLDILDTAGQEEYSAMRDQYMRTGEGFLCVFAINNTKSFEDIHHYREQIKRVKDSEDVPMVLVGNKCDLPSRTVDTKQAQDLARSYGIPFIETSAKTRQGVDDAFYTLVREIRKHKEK
Chain of KRas G12S (P01116 1-169 isoform P01116-2 G12S): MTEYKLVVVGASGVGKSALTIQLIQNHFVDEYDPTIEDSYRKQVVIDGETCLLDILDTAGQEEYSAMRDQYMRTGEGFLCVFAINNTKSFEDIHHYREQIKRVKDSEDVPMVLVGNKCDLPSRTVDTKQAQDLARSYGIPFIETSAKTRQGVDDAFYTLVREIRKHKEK

C#Cc1c(F)ccc2cc(O)cc(-c3ncc4c(N5CCC[C@@](C)(O)C5)nc(OC[C@@]56CCCN5C[C@H](F)C6)nc4c3F)c12 [Example 13]
IC50 (KRas G13D): ≤ 2 nM | IC50 (KRas Q61H): ≤ 2 nM | IC50 [1]: 140 nM | IC50 [2]: 18 nM | IC50 [3]: 42 nM | IC50 [4]: 10 nM | IC50 [5]: 11 nM | IC50 [6]: 13 nM | IC50 [7]: 44 nM | IC50 [8]: 773 nM | IC50 (KRas G12D): ≤ 2 nM | IC50 (KRas G12V): ≤ 2 nM | IC50 (KRas G12R): ≤ 2 nM | IC50 (KRas G12A): ≤ 2 nM | IC50 (KRas G12S): ≤ 2 nM | IC50 (KRas G12C): ≤ 2 nM | IC50 (KRas WT): ≤ 2 nM | IC50 (pERK in MKN1 cells): 5 nM | IC50 (pERK in PSN1 cells): 1090 nM | IC50 (pERK in ASPC1 cells): 4 nM | IC50 (pERK in H727 cells): 13 nM | IC50 (pERK in A549 cells): 43 nM | IC50 (pERK in H460 cells): 27 nM | IC50 (pERK in HCT116 cells): 33 nM

CCc1c(F)ccc2cc(O)cc(-c3ncc4c(N5CCC[C@@](C)(O)C5)nc(OC[C@@H]5CCCN5C)nc4c3F)c12 [Example 28, (3R)-1-[7-(8-ethyl-7-fluoro-3-hydroxy-1-naphthyl)-8-fluoro-2-[[(2S)-1-methylpyrrolidin-2-yl]methoxy]pyrido[4,3-d]pyrimidin-4-yl]-3-methyl-piperidin-3-ol]
IC50 (KRas G13D): 3 nM | IC50 (KRas Q61H): 3 nM | IC50 [1]: 523 nM | IC50 [2]: 78 nM | IC50 [3]: 153 nM | IC50 [4]: 24 nM | IC50 [5]: 60 nM | IC50 [6]: 54 nM | IC50 [7]: 308 nM | IC50 [8]: ≥ 10000 nM | IC50 (KRas G12D): 3 nM | IC50 (KRas G12V): ≤ 2 nM | IC50 (KRas G12R): 3 nM | IC50 (KRas G12A): ≤ 2 nM | IC50 (KRas G12S): ≤ 2 nM | IC50 (KRas G12C): ≤ 2 nM | IC50 (KRas WT): 3 nM | IC50 (pERK in MKN1 cells): 21 nM | IC50 (pERK in PSN1 cells): 7250 nM | IC50 (pERK in ASPC1 cells): 20 nM | IC50 (pERK in H727 cells): 159 nM | IC50 (pERK in A549 cells): 156 nM | IC50 (pERK in H460 cells): 101 nM | IC50 (pERK in HCT116 cells): 155 nM

CCc1c(F)ccc2cc(O)cc(-c3ncc4c(N5CCCC6(CC(=O)N6)C5)nc(OC[C@@]56CCCN5C[C@H](F)C6)nc4c3F)c12 (stereo partly shown) [Example 57]
IC50 (KRas G13D): 3 nM | IC50 (KRas Q61H): ≤ 2 nM | IC50 [1]: 668 nM | IC50 [2]: 82 nM | IC50 [3]: 1080 nM | IC50 [4]: 22 nM | IC50 [5]: 50 nM | IC50 [6]: 119 nM | IC50 [7]: 115 nM | IC50 [8]: 4140 nM | IC50 (KRas G12D): ≤ 2 nM | IC50 (KRas G12V): ≤ 2 nM | IC50 (KRas G12R): ≤ 2 nM | IC50 (pERK in ASPC1 cells): 32 nM | IC50 (pERK in H727 cells): 55 nM | IC50 (pERK in A549 cells): 175 nM | IC50 (pERK in H460 cells): 119 nM | IC50 (pERK in HCT116 cells): 2010 nM

CCc1c(F)ccc2cc(O)cc(-c3ncc4c(N5CCOCC(C)(O)C5)nc(OC[C@@]56CCCN5C[C@H](F)C6)nc4c3F)c12 (stereo partly shown) [Example 63]
IC50 [1]: 139 nM | IC50 [2]: 15 nM | IC50 [3]: 44 nM | IC50 [4]: 5 nM | IC50 [5]: 27 nM | IC50 [6]: 38 nM | IC50 [7]: 56 nM | IC50 [8]: 1040 nM | IC50 (pERK in ASPC1 cells): 4 nM | IC50 (pERK in H727 cells): 28 nM | IC50 (pERK in A549 cells): 19 nM | IC50 (pERK in H460 cells): 21 nM | IC50 (pERK in HCT116 cells): 63 nM

Reference: patent US12398154B2, “Azaquinazoline pan-KRas inhibitors” (Mirati Therapeutics, Inc., priority 2020, dated 2025)
